This is an account of results in patent US10106542B2, “Substituted 6,7-dihydropyrazolo[1,5-a]pyrazines as negative allosteric modulators of mGluR2 receptors” (Janssen Pharmaceutica NV, priority 2013, dated 2018).

This assay addresses T1, human mGlu2 receptor (Homo sapiens, UniProt Q14416).
T1 construct: expressed in transfected cells; host or cells: CHO cells (membrane preparation)
Kind of assay: [35S]GTPγS binding assay (mGluR2 negative allosteric modulation). As to conditions: for IC50: read-out: GTPγS - hmGluR2 anGT pIC50 (converted); for Emax / GTPγS - hmGluR2 anGT Emax: relative maximal effect: maximal % inhibition relative to the control glutamate response; for Emax: read-out: GTPγS - hmGluR2 anGT Emax. Type of assay: biochemical. The procedure: 1) [^35S]GTPγS binding assay
The [^35S]GTPγS binding assay is a functional membrane-based assay used to study G-protein coupled receptor (GPCR) function whereby incorporation of a non-hydrolysable form of GTP, [^35S]GTPγS (guanosine 5′-triphosphate, labelled with […] ^35S), is measured. The G-protein a subunit catalyzes the exchange of guanosine 5′-diphosphate (GDP) by guanosine triphosphate (GTP) and on activation of the GPCR by an agonist, [^35S]GTPγS, becomes incorporated and cannot be cleaved to continue the exchange cycle (Harper (1998) Current Protocols in Pharmacology 2.6.1-10, John Wiley & Sons, Inc.). […] Here we describe the use of the [^35S]GTPγS binding assay using membranes from cells transfected with the human mGlu2 receptor and adapted from Schaffhauser et al. (Molecular Pharmacology, 2003, […]) for the detection of the negative allosteric modulation (NAM) properties of the compounds of this invention.
CHO-cells were cultured to pre-confluence and stimulated with 5 mM butyrate for 24 h. Cells were then collected by scraping in PBS and cell suspension was centrifuged (10 min at 4000 RPM in benchtop centrifuge). Supernatant was discarded and pellet gently resuspended in 50 mM Tris-HCl, pH 7.4 by mixing with an Ultra Turrax homogenizer. The suspension was centrifuged at 12,400 RPM (Sorvall F14S-6x250Y) for 10 minutes and the supernatant discarded. The pellet was homogenized in 5 mM Tris-HCl, pH 7.4 using an Ultra Turrax homogenizer and centrifuged again (13,000 RPM, 20 min, 4° C.). The final pellet was resuspended in 50 mM Tris-HCl, pH 7.4 and stored at −80° C. in appropriate aliquots before use. Protein concentration was determined by the Bradford method (Bio-Rad, USA) with bovine serum albumin as standard.
Measurement of mGluR2 negative allosteric modulatory activity of test compounds was performed as follows. Test compounds and glutamate were diluted in assay buffer containing 10 mM HEPES acid, 10 mM HEPES salt, pH 7.4, 100 mM NaCl, 3 mM MgCl2 and 10 μM GDP. Human mGlu2 receptor-containing membranes were thawed on ice and diluted in assay buffer supplemented with 18 μg/ml saponin. […] After addition of [^35S]GTPγS (f.c. 0.1 nM), assay mixtures were shaken briefly and further incubated to allow [^35S]GTPγS incorporation on activation (30 minutes, 30° C.). Final assay mixtures contained 7 μg of membrane protein in 10 mM HEPES acid, 10 mM HEPES salt, pH 7.4, 100 mM NaCl, 3 mM MgCl2, 10 μM GDP and 10 μg/ml saponin. Total reaction volume was 200 μl. Reactions were terminated by rapid filtration through Unifilter-96 GF/B plates (Perkin Elmer, Massachusetts, USA) using a 96-well filtermate universal harvester. Filters were washed 6 times with ice-cold 10 mM NaH2PO4/10 mM Na2HPO4, pH 7.4. Filters were then air-dried, and 30 μl of liquid scintillation cocktail (Microscint-O) was added to each well. Membrane-bound radioactivity was counted in a Topcount.
The concentration-response curves of representative compounds of the present invention were generated using the Lexis software interface (developed at J&J). Data were calculated as % of the control glutamate response, defined as the response that is generated upon addition of an EC80-equivalent concentration of glutamate.
A general note: GTPγS resists hydrolysis and so accumulates on activated G proteins.

[1] abbreviates: membranes from CHO cells transfected with human mGlu2 receptor, glutamate 60 μM, pIC50 = −log IC50 (M).

T1 sequence (Q14416 19-872): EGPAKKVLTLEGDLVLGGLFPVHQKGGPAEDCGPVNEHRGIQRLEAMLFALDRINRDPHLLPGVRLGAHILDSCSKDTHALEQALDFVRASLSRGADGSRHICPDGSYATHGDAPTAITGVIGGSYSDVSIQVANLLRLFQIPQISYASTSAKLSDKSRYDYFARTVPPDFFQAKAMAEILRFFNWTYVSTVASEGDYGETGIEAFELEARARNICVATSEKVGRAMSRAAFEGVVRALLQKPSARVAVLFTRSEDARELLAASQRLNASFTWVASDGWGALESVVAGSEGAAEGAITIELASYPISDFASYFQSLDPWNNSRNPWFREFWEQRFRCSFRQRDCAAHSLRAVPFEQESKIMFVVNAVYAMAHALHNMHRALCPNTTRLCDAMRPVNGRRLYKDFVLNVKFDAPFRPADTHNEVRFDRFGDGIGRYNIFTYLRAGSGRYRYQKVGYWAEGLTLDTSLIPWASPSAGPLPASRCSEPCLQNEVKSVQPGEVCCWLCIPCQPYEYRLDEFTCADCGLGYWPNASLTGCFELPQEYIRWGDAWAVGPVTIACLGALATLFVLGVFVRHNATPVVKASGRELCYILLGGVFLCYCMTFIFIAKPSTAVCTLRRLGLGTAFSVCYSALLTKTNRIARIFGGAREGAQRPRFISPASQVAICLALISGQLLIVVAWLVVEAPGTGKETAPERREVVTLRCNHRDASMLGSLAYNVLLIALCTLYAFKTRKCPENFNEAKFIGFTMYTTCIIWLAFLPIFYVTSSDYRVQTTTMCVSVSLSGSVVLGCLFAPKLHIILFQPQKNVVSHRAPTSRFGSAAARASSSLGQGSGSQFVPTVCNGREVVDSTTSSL

As to `Cc1cc(-c2cnn3c2C(=O)N(c2ccc(Cl)c(Cl)c2)CC3CF)ccn1` (single isomer, unassigned) [compound 115], the Emax (as a rule, the maximal effect, on the per cent scale that the assay sets) was found to be 108%. The IC50 under setting [1] is 7.08e-09 M.

With `Cc1cc(-c2cnn3c2C(=O)N(c2ccc(Cl)c(Cl)c2)CC3CF)ccn1` (single isomer, unassigned) [compound 116], the “GTPγS - hmGluR2 anGT Emax” value was 105%. Under setting [1], the IC50 was 5.62e-07 M.

For the compound `COCC1CN(c2ccc(Cl)c(Cl)c2)C(=O)c2c(-c3ccnc(C)c3)cnn21` (single isomer, unassigned) [compound 118], the Emax was found to be 105%. Also, under setting [1], the IC50 was 1.95e-08 M.

`COCC1CN(c2ccc(Cl)c(Cl)c2)C(=O)c2c(-c3ccnc(C)c3)cnn21` (single isomer, unassigned) [compound 119]: the “GTPγS - hmGluR2 anGT Emax” value was 100%. Moreover, the IC50 under setting [1] was 2.51e-06 M.

With `COCC1CN(c2ccc(C(F)(F)F)cc2)C(=O)c2c(-c3ccnc(C)c3)cnn21` (single isomer, unassigned) [compound 120], the “GTPγS - hmGluR2 anGT Emax” value worked out at 106%. Moreover, the IC50 under setting [1] is 6.46e-08 M.

`COCC1CN(c2ccc(C(F)(F)F)cc2)C(=O)c2c(-c3ccnc(C)c3)cnn21` (single isomer, unassigned) [compound 121]: the “GTPγS - hmGluR2 anGT Emax” value is recorded as 75%. The IC50 under setting [1] was 1.62e-05 M.

`CNc1cc(-c2cnn3c2C(=O)N(c2ccc(Cl)c(Cl)c2)CC3CF)ccn1` (single isomer, unassigned) [compound 184]: the Emax turned out to be 105%. Besides, under setting [1], the IC50 was 2.75e-07 M.

Take `CNc1cc(-c2cnn3c2C(=O)N(c2ccc(Cl)c(Cl)c2)CC3CF)ccn1` (single isomer, unassigned) [compound 185]: the “GTPγS - hmGluR2 anGT Emax” value came to 104%. Besides, under setting [1], the IC50 was 6.03e-09 M.

For `Cc1cc(-c2cnn3c2C(=O)N(c2ccc(Cl)c(Cl)c2)C[C@@H]3C)ccn1` [6a], the “GTPγS - hmGluR2 anGT Emax” value was determined as 112%. The IC50 under setting [1] was 4.79e-09 M.

Take `CCOc1ccc(N2C[C@H](C)n3ncc(-c4ccnc(C)c4)c3C2=O)cc1Cl` [compound 17]: the Emax stood at 104%. For the same compound, the IC50 under setting [1] is 4.79e-08 M.

As for `COc1ccc(N2C[C@H](C)n3ncc(-c4ccnc(C)c4)c3C2=O)cc1Cl` [compound 20], the Emax is 104%. Besides, under setting [1], the IC50 was 8.71e-08 M.

Regarding `Cc1cc(-c2cnn3c2C(=O)N(c2ccc(F)c(F)c2)C[C@@H]3C)ccn1` [compound 25], the Emax was determined as 103%. Moreover, the IC50 under setting [1] is 1.45e-07 M.

Regarding `Cc1cc(-c2cnn3c2C(=O)N(c2ccc(F)cc2)C[C@@H]3C)ccn1` [compound 28], the Emax was 105%. In addition, under setting [1], the IC50 is 2.4e-07 M.

For `C[C@H]1CN(c2ccc(C(F)(F)F)cc2)C(=O)c2c(-c3cccnc3)cnn21` [compound 32], the maximal response (Emax) was found to be 101%. In addition, under setting [1], the IC50 is 5.62e-07 M.

As for `Cc1cc(-c2cnn3c2C(=O)N(c2ccc4c(c2)OCCO4)C[C@@H]3C)ccn1` [compound 42], the Emax is 102%. Further, the IC50 under setting [1] was 3.09e-06 M.

In the case of `Cc1cc(-c2cnn3c2C(=O)N(c2ccc(C(F)(F)F)c(OCCF)c2)C[C@@H]3C)ccn1` [compound 48], the Emax stood at 100%. In addition, the IC50 under setting [1] was 7.76e-09 M.

As to `Cc1cc(-c2cnn3c2C(=O)N(c2cccc(OC(F)(F)F)c2)C[C@@H]3C)ccn1` [compound 58], the maximal response (Emax) stood at 107%. For the same compound, under setting [1], the IC50 is 2.19e-08 M.

Turning to `Cc1cc(-c2cnn3c2C(=O)N(c2cc(F)cc(Cl)c2)C[C@@H]3C)ccn1` [compound 63], the maximum response (Emax) worked out at 105%. In addition, the IC50 under setting [1] was 3.39e-08 M.

Consider `Cc1cc(-c2cnn3c2C(=O)N(c2ccc(C(C)C)cc2)C[C@@H]3C)ccn1` [compound 65], for which the Emax came out at 106%. For the same compound, the IC50 under setting [1] is 4.47e-08 M.

Consider `CCCc1ccc(N2C[C@H](C)n3ncc(-c4ccnc(C)c4)c3C2=O)cc1` [compound 66], for which the maximum response (Emax) was 107%. The IC50 under setting [1] was 4.07e-08 M.

With `Cc1cc(-c2cnn3c2C(=O)N(c2ccc(F)c(C(F)(F)F)c2)C[C@@H]3C)ccn1` [compound 67, (7S)-5-[4-Fluoro-3-(trifluoromethyl)phenyl]-7-methyl-3-(2-methyl-4-pyridyl)-6,7-dihydropyrazolo[1,5-a]pyrazin-4-one], the Emax is 104%. Under setting [1], the IC50 is 6.31e-08 M.

On to `Cc1cc(-c2cnn3c2C(=O)N(c2cc(F)cc(OC(F)F)c2)C[C@@H]3C)ccn1` [compound 69], for which the maximum response (Emax) was found to be 103%. Further, under setting [1], the IC50 is 5.37e-08 M.

For `CCC1CN(c2ccc(C(F)(F)F)cc2)C(=O)c2c(-c3ccnc(C)c3)cnn21` (stereo not shown) [compound 70], the Emax came out at 106%. For the same compound, under setting [1], the “GTPγS - hmGluR2 anGT pIC50” value turned out to be 7.1.

Turning to `Cc1cc(-c2cnn3c2C(=O)N(c2ccc(C#N)c(F)c2)C[C@@H]3C)ccn1` [compound 75], the Emax was 100%. Moreover, the IC50 under setting [1] is 2.75e-07 M.

In the case of `Cc1cc(-c2cnn3c2C(=O)N(c2ccc(C)c(F)c2)C[C@@H]3C)ccn1` [compound 76], the Emax was 100%. Also, under setting [1], the IC50 was 2.82e-07 M.

As for `Cc1cc(-c2cnn3c2C(=O)N(c2ccccc2)C[C@@H]3C)ccn1` [compound 86], the Emax came out at 102%. Besides, under setting [1], the IC50 was 1e-06 M.

On to `COc1cc(-c2cnn3c2C(=O)N(c2ccc(Cl)cc2)C[C@@H]3C)ccn1` [compound 89], for which the maximum response (Emax) amounted to 104%. Further, under setting [1], the IC50 was 4.17e-08 M.

As to `C[C@H]1CN(c2ccc(C(F)(F)F)c(Cl)c2)C(=O)c2c(-c3ccnc(N4CC(F)C4)c3)cnn21` [compound 92], the Emax was found to be 107%. Also, the IC50 under setting [1] is 2.95e-09 M.

As to `CNc1cc(-c2cnn3c2C(=O)N(c2ccc(Cl)c(Cl)c2)CC3CF)ccn1` (stereo not shown) [compound 93], the Emax was determined as 105%. Moreover, the IC50 under setting [1] is 1.82e-08 M.

For `C[C@H]1CN(c2ccc(C(F)(F)F)cc2)C(=O)c2c(-c3ccnc(N4CC(F)C4)c3)cnn21` [compound 94], the maximum response (Emax) came to 108%. For the same compound, the IC50 under setting [1] was 5.5e-08 M.

In the case of `C[C@H]1CN(c2ccc(C(F)(F)F)c(Cl)c2)C(=O)c2c(-c3ccnc(N4CCC4)c3)cnn21` [compound 96], the maximal effect (Emax) amounted to 108%. Under setting [1], the IC50 is 1.23e-09 M.

For the compound `C[C@H]1CN(c2ccc(Cl)c(Cl)c2)C(=O)c2c(-c3ccnc(N4CCC4)c3)cnn21` [compound 97], the maximum response (Emax) is 104%. For the same compound, under setting [1], the IC50 was 1.66e-09 M.

As to `Cc1cc(-c2cnn3c2C(=O)N(c2ccc(C(F)(F)F)c(CF)c2)C[C@@H]3C)ccn1` [compound 98], the maximum response (Emax) amounted to 111%. Under setting [1], the IC50 is 6.46e-09 M.

`CC(=O)N1CCN(c2cc(-c3cnn4c3C(=O)N(c3ccc(C(F)(F)F)cc3)C[C@@H]4C)ccn2)CC1` [compound 106, (7S)-3-[2-(4-Acetylpiperazin-1-yl)-4-pyridyl]-7-methyl-5-[4-(trifluoromethyl)phenyl]-6,7-dihydropyrazolo[1,5-a]pyrazin-4-one]: the Emax amounted to 109%. The IC50 under setting [1] is 6.03e-07 M.

For the compound `C[C@H]1CN(c2ccc(C(F)(F)F)cc2)C(=O)c2c(-c3ccnc(N4CCCCC4)c3)cnn21` [compound 107], the maximum response (Emax) is 114%. The IC50 under setting [1] is 1.78e-08 M.

With `Cc1cc(-c2cnn3c2C(=O)N(c2ccc(C(C)C(F)(F)F)cc2)C[C@@H]3C)ccn1` (stereo partly shown) [compound 113], the Emax stood at 103%. Moreover, the IC50 under setting [1] was 9.12e-08 M.

In the case of `C[C@H]1CN(c2ccc(Cl)c(Cl)c2)C(=O)c2c(-c3ccnc(CF)c3)cnn21` [compound 117], the maximal response (Emax) turned out to be 109%. For the same compound, the IC50 under setting [1] is 7.59e-09 M.

Regarding `C[C@H]1CN(c2ccc(Cl)c(Cl)c2)C(=O)c2c(-c3ccnc(C4CC4)c3)cnn21` [compound 122], the maximum response (Emax) is 108%. Also, the IC50 under setting [1] is 3.72e-09 M.
